Calls of active or inactive are those of the source. The calls are words filed in the database; no cut-off is given here.
How the values were obtained:
[1] = biological target: Histone deacetylase 2 (Homo sapiens, UniProt Q92769); assay: Inhibition of recombinant human HDAC2 using Boc-Lys (acetyl)-AMC as substrate preincubated with compound for 1 hr followed by substrate addition and measured after 30 mins by microplate reader assay
[2] = biological target: Histone deacetylase 3 (Homo sapiens, UniProt O15379); assay: Inhibition of recombinant human HDAC3 using Boc-Lys (acetyl)-AMC as substrate preincubated with compound for 1 hr followed by substrate addition and measured after 30 mins by microplate reader assay
Sequence of Histone deacetylase 3 (O15379 whole entry): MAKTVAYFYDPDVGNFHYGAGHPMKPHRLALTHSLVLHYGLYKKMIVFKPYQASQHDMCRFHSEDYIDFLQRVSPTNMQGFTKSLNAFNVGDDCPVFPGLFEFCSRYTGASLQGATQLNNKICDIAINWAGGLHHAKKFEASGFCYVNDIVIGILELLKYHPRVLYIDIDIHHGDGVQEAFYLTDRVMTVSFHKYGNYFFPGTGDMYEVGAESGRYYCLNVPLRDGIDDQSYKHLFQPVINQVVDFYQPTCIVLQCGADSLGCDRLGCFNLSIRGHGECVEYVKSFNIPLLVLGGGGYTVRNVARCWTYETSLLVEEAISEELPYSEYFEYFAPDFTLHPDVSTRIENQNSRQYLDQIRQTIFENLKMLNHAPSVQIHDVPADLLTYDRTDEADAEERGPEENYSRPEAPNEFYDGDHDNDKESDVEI

[3] = biological target: T1, Protein deacetylase HDAC6 (Homo sapiens, UniProt Q9UBN7); assay: Inhibition of recombinant human HDAC6 using Boc-Lys (acetyl)-AMC as substrate preincubated with compound for 1 hr followed by substrate addition and measured after 30 mins by microplate reader assay
T1 sequence (Q9UBN7 whole entry): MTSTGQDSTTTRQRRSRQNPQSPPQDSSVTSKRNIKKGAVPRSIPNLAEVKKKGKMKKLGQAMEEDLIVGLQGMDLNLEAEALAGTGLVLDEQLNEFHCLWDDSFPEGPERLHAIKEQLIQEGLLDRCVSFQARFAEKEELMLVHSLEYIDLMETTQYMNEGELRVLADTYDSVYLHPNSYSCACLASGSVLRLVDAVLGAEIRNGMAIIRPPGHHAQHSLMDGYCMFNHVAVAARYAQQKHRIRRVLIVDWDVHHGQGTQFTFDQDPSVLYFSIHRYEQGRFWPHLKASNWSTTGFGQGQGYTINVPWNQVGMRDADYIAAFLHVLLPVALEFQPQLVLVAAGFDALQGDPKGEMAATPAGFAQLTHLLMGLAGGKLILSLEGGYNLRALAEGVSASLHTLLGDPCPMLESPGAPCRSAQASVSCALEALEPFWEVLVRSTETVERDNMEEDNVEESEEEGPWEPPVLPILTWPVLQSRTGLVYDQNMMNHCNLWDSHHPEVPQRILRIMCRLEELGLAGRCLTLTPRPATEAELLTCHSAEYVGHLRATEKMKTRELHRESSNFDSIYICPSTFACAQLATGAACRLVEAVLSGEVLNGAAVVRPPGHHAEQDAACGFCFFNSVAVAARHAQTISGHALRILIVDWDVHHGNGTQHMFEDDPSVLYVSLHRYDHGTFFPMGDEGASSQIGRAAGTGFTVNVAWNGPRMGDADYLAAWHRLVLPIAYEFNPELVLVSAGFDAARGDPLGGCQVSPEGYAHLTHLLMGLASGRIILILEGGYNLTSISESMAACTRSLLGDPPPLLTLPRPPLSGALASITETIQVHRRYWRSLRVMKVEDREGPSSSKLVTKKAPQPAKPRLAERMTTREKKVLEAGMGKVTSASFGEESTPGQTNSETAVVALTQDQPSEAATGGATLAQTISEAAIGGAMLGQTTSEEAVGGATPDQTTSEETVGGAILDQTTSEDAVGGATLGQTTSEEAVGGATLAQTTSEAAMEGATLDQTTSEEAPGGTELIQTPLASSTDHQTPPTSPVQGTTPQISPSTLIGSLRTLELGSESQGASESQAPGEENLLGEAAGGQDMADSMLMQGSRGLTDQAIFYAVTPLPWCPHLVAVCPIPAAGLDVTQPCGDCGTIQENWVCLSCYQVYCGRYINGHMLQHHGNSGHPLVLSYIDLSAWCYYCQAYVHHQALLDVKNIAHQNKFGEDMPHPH

[4] = biological target: Histone deacetylase 4 (Homo sapiens, UniProt P56524); assay: Inhibition of recombinant human HDAC4 using Boc-Lys (trifluroacetyl)-AMC as substrate preincubated with compound for 1 hr followed by substrate addition and measured after 30 mins by microplate reader assay
Sequence of Histone deacetylase 4 (P56524 whole entry): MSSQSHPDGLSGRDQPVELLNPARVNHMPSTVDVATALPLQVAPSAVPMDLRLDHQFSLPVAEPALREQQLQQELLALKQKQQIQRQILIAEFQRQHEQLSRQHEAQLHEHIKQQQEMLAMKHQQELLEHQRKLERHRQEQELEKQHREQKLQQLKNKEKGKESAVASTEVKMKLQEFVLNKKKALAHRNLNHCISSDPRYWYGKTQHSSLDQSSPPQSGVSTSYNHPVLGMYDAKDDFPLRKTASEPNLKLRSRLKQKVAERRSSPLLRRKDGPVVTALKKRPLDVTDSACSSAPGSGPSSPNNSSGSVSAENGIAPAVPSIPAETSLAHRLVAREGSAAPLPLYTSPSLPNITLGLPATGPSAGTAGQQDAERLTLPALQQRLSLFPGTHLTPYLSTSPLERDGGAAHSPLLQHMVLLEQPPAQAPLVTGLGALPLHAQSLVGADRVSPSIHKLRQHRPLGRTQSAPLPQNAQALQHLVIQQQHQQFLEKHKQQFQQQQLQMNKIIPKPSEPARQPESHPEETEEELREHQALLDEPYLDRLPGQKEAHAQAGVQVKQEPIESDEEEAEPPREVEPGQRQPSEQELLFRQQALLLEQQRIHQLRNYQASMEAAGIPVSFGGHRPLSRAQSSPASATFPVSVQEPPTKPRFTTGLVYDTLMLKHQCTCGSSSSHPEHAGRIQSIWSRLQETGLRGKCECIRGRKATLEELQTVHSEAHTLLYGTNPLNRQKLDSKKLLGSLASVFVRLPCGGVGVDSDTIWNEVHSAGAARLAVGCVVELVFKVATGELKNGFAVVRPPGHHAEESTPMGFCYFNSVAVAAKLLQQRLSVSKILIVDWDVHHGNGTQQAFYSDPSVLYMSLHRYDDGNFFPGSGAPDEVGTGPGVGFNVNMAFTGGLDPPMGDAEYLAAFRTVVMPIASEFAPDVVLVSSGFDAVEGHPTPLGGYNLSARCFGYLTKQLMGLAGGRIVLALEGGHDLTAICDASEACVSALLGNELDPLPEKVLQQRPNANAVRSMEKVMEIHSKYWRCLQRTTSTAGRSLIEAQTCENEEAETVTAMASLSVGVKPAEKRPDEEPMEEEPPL

[5] = biological target: Signal transducer and activator of transcription 4 (Homo sapiens, UniProt Q14765); assay: Binding affinity to STAT4 (unknown origin) assessed as dissociation constant by SPR assay
Sequence of Signal transducer and activator of transcription 4 (Q14765 whole entry): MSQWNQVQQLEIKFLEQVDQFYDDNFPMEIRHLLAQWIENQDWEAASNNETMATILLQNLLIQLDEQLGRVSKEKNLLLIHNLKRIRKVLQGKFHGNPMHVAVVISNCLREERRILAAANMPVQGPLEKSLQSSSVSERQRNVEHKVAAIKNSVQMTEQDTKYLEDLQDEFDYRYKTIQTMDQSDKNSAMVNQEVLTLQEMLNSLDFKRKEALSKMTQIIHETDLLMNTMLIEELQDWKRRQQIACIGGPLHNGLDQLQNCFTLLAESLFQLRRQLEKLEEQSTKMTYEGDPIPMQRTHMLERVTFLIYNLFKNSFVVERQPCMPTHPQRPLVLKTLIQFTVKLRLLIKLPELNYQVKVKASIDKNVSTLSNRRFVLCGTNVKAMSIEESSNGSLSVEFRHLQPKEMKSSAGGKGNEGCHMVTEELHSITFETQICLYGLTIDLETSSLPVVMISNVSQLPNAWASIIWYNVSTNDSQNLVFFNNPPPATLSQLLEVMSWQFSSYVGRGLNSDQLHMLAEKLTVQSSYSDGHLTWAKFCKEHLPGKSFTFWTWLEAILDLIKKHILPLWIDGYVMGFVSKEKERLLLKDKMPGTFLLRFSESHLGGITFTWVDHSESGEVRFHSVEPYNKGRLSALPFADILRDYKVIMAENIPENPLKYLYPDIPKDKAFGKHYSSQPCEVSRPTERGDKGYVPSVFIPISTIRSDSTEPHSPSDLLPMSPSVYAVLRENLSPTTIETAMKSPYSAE

[6] = biological target: Signal transducer and activator of transcription 3 (Homo sapiens, UniProt P40763); assay: Inhibition of STAT3 (unknown origin) in human A549 cells incubated for 4 hrs by Cellular thermal shift assay; assay type: cell-based
Sequence of Signal transducer and activator of transcription 3 (P40763 whole entry): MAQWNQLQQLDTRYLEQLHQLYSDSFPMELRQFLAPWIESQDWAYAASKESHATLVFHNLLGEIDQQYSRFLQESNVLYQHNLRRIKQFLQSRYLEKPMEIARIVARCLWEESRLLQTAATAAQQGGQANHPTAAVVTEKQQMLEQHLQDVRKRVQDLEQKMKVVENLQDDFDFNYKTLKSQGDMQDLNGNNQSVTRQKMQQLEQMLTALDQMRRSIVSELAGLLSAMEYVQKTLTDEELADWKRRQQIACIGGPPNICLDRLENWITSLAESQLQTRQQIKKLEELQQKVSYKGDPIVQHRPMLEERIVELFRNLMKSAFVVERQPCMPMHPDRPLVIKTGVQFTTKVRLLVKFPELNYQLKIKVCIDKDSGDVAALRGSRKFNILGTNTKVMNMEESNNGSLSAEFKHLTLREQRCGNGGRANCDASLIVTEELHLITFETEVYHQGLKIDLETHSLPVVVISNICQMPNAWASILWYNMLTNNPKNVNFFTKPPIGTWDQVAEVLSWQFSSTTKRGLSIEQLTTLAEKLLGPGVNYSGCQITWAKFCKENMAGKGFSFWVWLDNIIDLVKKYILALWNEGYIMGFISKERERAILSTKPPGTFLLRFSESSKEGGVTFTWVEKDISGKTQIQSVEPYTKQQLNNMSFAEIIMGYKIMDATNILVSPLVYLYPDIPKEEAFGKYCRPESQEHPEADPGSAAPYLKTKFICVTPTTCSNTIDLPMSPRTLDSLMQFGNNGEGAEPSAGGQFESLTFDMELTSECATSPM

[7] = biological target: Protein deacetylase HDAC6 (Homo sapiens) (UniProt Q9UBN7); assay: Inhibition of HDAC6 in human A549 cells assessed as increase in Ac-tubulin at 0.5 uM incubated for 12 hrs by Western blot analysis; assay type: cell-based
[8] = biological target: Protein deacetylase HDAC6 (Homo sapiens) (UniProt Q9UBN7); assay: Inhibition of HDAC6 in human A549 cells assessed as increase in […] level at 0.5 uM incubated for 12 hrs by Western blot analysis; assay type: cell-based
[9] = test system: A549; assay: Induction of apoptosis in human A549 cells assessed as early apoptotic cells at 4 uM incubated for 24 hrs by Annexin V-FITC/PI staining based flow cytometric analysis (reference value: 1.53%); assay type: functional
[10] = Toxicity in female BALB/c nu/nu mouse xenografted with human A549 cells assessed as effect on body weight at 2.5 mg/kg, iv and measured regularly; assay type: organism-based; settings: in vivo
[11] = Toxicity in female BALB/c nu/nu mouse xenografted with human A549 cells assessed as effect on kidney at 2.5 mg/kg, iv by H and E staining based analysis; assay type: organism-based; settings: in vivo
[12] = Toxicity in female BALB/c nu/nu mouse xenografted with human A549 cells assessed as effect on kidney at 5 mg/kg, iv by H and E staining based analysis; assay type: organism-based; settings: in vivo
[13] = Toxicity in female BALB/c nu/nu mouse xenografted with human A549 cells assessed as effect on body weight at 5 mg/kg, iv using self assembled nanoparticle as source of compound and measured regularly; assay type: organism-based; settings: in vivo
[14] = Drug uptake in tumor of nude mouse xenografted with A549 cells assessed as accumulation of tumor tissues at 5 mg/kg, iv using self assembled nanoparticle as source of compound by LC-MS/MS analysis; assay type: ADME, organism-based; settings: in vivo
[15] = Biodistribution in kidney of nude mouse xenografted with A549 cells at 5 mg/kg, iv using chlorine e6 loaded self-assembled nanoparticle as source of compound incubated for 24 hrs by ex-vivo fluorescence based LC-MS/MS analysis; assay type: ADME, organism-based
[16] = test system: HCT-116; assay: cells; settings: Homo sapiens, HCT-116, 72 h
Description: Antiproliferative activity against human HCT-116 cells assessed as inhibition of cell proliferation incubated for 72 hrs by CCK-8 assay

[17] = test system: A549; assay: Induction of apoptosis in human A549 cells assessed as decrease in BCL-2 protein level at 6 uM incubated for 12 hrs by Western blot analysis

Sequence of Histone deacetylase 2 (Q92769 whole entry): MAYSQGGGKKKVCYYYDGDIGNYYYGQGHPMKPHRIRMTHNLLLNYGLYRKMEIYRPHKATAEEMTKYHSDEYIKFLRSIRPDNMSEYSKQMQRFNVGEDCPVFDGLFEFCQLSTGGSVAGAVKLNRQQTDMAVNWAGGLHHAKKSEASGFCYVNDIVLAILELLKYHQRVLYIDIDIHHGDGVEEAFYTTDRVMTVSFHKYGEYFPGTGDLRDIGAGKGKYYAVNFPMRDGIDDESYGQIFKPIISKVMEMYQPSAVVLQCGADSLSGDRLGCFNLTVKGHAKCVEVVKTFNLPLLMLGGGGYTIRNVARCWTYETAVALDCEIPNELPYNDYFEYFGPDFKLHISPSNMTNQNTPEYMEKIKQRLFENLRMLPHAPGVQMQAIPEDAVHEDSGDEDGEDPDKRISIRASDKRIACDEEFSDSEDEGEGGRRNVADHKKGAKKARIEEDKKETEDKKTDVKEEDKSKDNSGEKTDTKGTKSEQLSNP

Compound: C=C1C(=O)O[C@@H]2C[C@@]3(C)CC[C@@H](OC(=O)[C@H](C)NC(=O)c4ccc(/C=C/C(=O)NO)cc4)C(=C)[C@@H]3C[C@H]12
- IC50 [1]: 52.6 nM
- IC50 [2]: 51.9 nM
- IC50 [3]: 7.69 nM
- IC50 [4]: > 10 µM
- Kd [5]: Not Active
- inhibition [6]: Active
- inhibition [7]: Active
- inhibition [8]: Active
- Activity [9]: 5.3%
- Activity [10]: Non-Toxic
- Activity [11]: Non-Toxic
- Activity [12]: Non-Toxic
- Activity [13]: Non-Toxic
- Drug uptake [14]: Active
- Drug uptake [15]: Active
- IC50 [16]: 40 nM
- Activity [17]: Active

Source: ChEMBL document CHEMBL6071142, “Isoalantolactone/hydroxamic acid hybrids as potent dual STAT3/HDAC inhibitors and self-assembled nanoparticles for cancer therapy” (Eur J Med Chem, 2024)
